{
  "source": "patent US12186303B2",
  "about": "“Feed additive for cattle comprising n-acetyl-l-tryptophan as active ingredient” (CJ CHEILJEDANG CORPORATION, priority 2018, dated 2025)",
  "key": {"[1]": {"system": "Korean native steers", "test": "Complete blood cell count (CBC) under heat stress conditions", "type": "in vivo, Korean native cattle", "conditions": "for GRA (0-2.4) / HCT (23-33) / HGB (8.0-15.0) / LYM (2.5-7.5) / MCH (14-18) / MCHC (30-36) / MCV (40-60) / MON (0-0.84) / MPV (4.5-7.6) / PCT (0.15-0.40) / PDW (56-80) / PLT (100-800) / RBC (5.0-10.0) / RDW (16-20) / WBC (4.0-12.0): 0.1% NALT", "excerpt": "(§1) After grouping the animals by statistical analysis of initial body weights, the animals were bred in 1.0×1.5 m^2 individual pens during the experiment period. The feed was offered based on an amount of dry matter of daily total mixed ration (TMR) per head. After 7 days of an adaptation period for N-acetyl-L-tryptophan (NALT), a mixture of 0.1% N-acetyl-L-tryptophan (NALT) and the total mixed ration was fed to individual animals every morning at 8 a.m. for 6 weeks, and water was available ad libitum. Total amounts of L-tryptophan ingested by the control and the experimental group (NALT-treated group) by feeding NALT were 6.0 g/day/head and 18.2 g/day/head, respectively. The experiment was performed such that the NALT-treated group ingested 12.2 g/day/head more L-tryptophan than the control.\n(§2) Meanwhile, results of growth performance analysis (body weight and average feed intake) and genetic analysis of loin tissue were obtained by statistically comparing and analyzing significant differences between the control and the NALT-treated group, and results of hematological analysis were obtained via statistical comparison and analysis depending on NALT treatment, experiment period (days), and interaction (treatment×days). These numerical values were expressed as average values, and a significance test was performed at the 5% level using Student's t-test by using a JMP 5.0 software package (SAS Institute Inc., Cary, NC, USA).\nBlood samples were collected from a jugular vein of each sentinel animal before offering the feed at the starting day of the experiment (week 0), the mid-point of the experiment (week 5), and the final day of the experiment (week 10) and stored in a vacutainer (Becton Dickinson, Franklin Lakes, NJ, USA). Complete blood cell count (CBC) was performed using whole blood using a VetScan HM2 (Abaxis, Union City, CA, USA), and hematological properties were identified using serum with a biochemical autoanalyzer (FUJI DRI-CHEM 7000, Fujifilm, Tokyo, Japan). In addition, total protein (TP), albumin (ALB), creatinine phosphokinase (CPK), and blood urea nitrogen (BUN), which are related to blood protein metabolism, were analyzed; triglycerides (TG) and non-esterified fatty acid (NEFA), which are related to energy metabolism, were analyzed; and sodium (Na), chlorine (CI), and potassium (K), which are blood electrolytes, were analyzed."}, "[2]": {"system": "Korean native steers", "test": "Hematological analysis (VetScan HM2) under cold stress conditions", "type": "in vivo, Korean native cattle", "set-up": "MON / GRA / RBC / HGB / HCT / MCH / WBC / LYM: unit not given here", "conditions": "for GRA / HCT / HGB / LYM / MCH / MON / PLT / RBC / WBC: 0.1% NALT", "excerpt": "as §1, with “NALT-treated” for “the experimental”, “group” for “group (NALT-treated group)”, “7.37” for “6.0”, “16.26” for “18.2”, “8.89” for “12.2”, “than that of” for “than”\nas §2, with “using the” for “using a”\nBlood was collected from a jugular vein of each sentinel animal before offering the feed at the starting day of the experiment (week 0), the mid-point of the experiment (week 4), and the final day of the experiment (week 7) and added to a vacutainer (Becton Dickinson, Franklin Lakes, NJ, USA). Hematological analysis was conducted using a VetScan HM2 Hematology System (Abaxis, Union City, CA, USA)."}},
  "data": [
    {"compound": "CC(=O)N[C@@H](Cc1c[nH]c2ccccc12)C(=O)O", "note": "[NALT, N-acetyl-L-tryptophan]", "values": [
      {"measurement": "All CBC test indicators, effect of treatment with 0.1% NALT", "setting": "[1]", "result": "No statistically significant difference"},
      {"measurement": "Values of hematological indicators (CBC) relative to normal ranges", "setting": "[1]", "result": "within normal ranges"},
      {"measurement": "GRA (0-2.4)", "setting": "[1]; Day 0", "result": "3.16 10^3/μL"},
      {"measurement": "HCT (23-33)", "setting": "[1]; Day 0", "result": 6.95, "unit": "%"},
      {"measurement": "HGB (8.0-15.0)", "setting": "[1]; Day 0", "result": 13.4, "unit": "g/dL"},
      {"measurement": "LYM (2.5-7.5)", "setting": "[1]; Day 0", "result": "6.08 10^3/μL"},
      {"measurement": "MCH (14-18)", "setting": "[1]; Day 0", "result": 14.8, "unit": "pg"},
      {"measurement": "MCHC (30-36)", "setting": "[1]; Day 0", "result": 38.3, "unit": "g/dL"},
      {"measurement": "MCV (40-60)", "setting": "[1]; Day 0", "result": 38.8, "unit": "fL"},
      {"measurement": "MON (0-0.84)", "setting": "[1]; Day 0", "result": "0.22 10^3/μL"},
      {"measurement": "MPV (4.5-7.6)", "setting": "[1]; Day 0", "result": 6.95, "unit": "fL"},
      {"measurement": "PCT (0.15-0.40)", "setting": "[1]; Day 0", "result": 0.24, "unit": "%"},
      {"measurement": "PDW (56-80)", "setting": "[1]; Day 0", "result": 34.1, "unit": "%"},
      {"measurement": "PLT (100-800)", "setting": "[1]; Day 0", "result": "332 10^3/μL"},
      {"measurement": "RBC (5.0-10.0)", "setting": "[1]; Day 0", "result": "9.13 10^6/μL"},
      {"measurement": "RDW (16-20)", "setting": "[1]; Day 0", "result": 23.6, "unit": "%"},
      {"measurement": "WBC (4.0-12.0)", "setting": "[1]; Day 0", "result": "9.60 10^3/μL"},
      {"measurement": "GRA (0-2.4)", "setting": "[1]; Day 35", "result": "3.61 10^3/μL"},
      {"measurement": "HCT (23-33)", "setting": "[1]; Day 35", "result": 6.58, "unit": "%"},
      {"measurement": "HGB (8.0-15.0)", "setting": "[1]; Day 35", "result": 11.7, "unit": "g/dL"},
      {"measurement": "LYM (2.5-7.5)", "setting": "[1]; Day 35", "result": "5.67 10^3/μL"},
      {"measurement": "MCH (14-18)", "setting": "[1]; Day 35", "result": 14.7, "unit": "pg"},
      {"measurement": "MCHC (30-36)", "setting": "[1]; Day 35", "result": 37.1, "unit": "g/dL"},
      {"measurement": "MCV (40-60)", "setting": "[1]; Day 35", "result": 40.0, "unit": "fL"},
      {"measurement": "MON (0-0.84)", "setting": "[1]; Day 35", "result": "0.46 10^3/μL"},
      {"measurement": "MPV (4.5-7.6)", "setting": "[1]; Day 35", "result": 6.58, "unit": "fL"},
      {"measurement": "PCT (0.15-0.40)", "setting": "[1]; Day 35", "result": 0.24, "unit": "%"},
      {"measurement": "PDW (56-80)", "setting": "[1]; Day 35", "result": 31.5, "unit": "%"},
      {"measurement": "PLT (100-800)", "setting": "[1]; Day 35", "result": "371 10^3/μL"},
      {"measurement": "RBC (5.0-10.0)", "setting": "[1]; Day 35", "result": "8.04 10^6/μL"},
      {"measurement": "RDW (16-20)", "setting": "[1]; Day 35", "result": 22.7, "unit": "%"},
      {"measurement": "WBC (4.0-12.0)", "setting": "[1]; Day 35", "result": "9.74 10^3/μL"},
      {"measurement": "GRA (0-2.4)", "setting": "[1]; Day 70", "result": "3.66 10^3/μL"},
      {"measurement": "HCT (23-33)", "setting": "[1]; Day 70", "result": 9.80, "unit": "%"},
      {"measurement": "HGB (8.0-15.0)", "setting": "[1]; Day 70", "result": 13.8, "unit": "g/dL"},
      {"measurement": "LYM (2.5-7.5)", "setting": "[1]; Day 70", "result": "4.91 10^3/μL"},
      {"measurement": "MCH (14-18)", "setting": "[1]; Day 70", "result": 15.7, "unit": "pg"},
      {"measurement": "MCHC (30-36)", "setting": "[1]; Day 70", "result": 37.1, "unit": "g/dL"},
      {"measurement": "MCV (40-60)", "setting": "[1]; Day 70", "result": 42.5, "unit": "fL"},
      {"measurement": "MON (0-0.84)", "setting": "[1]; Day 70", "result": "0.81 10^3/μL"},
      {"measurement": "MPV (4.5-7.6)", "setting": "[1]; Day 70", "result": 9.80, "unit": "fL"},
      {"measurement": "PCT (0.15-0.40)", "setting": "[1]; Day 70", "result": 0.24, "unit": "%"},
      {"measurement": "PDW (56-80)", "setting": "[1]; Day 70", "result": 29.5, "unit": "%"},
      {"measurement": "PLT (100-800)", "setting": "[1]; Day 70", "result": "196 10^3/μL"},
      {"measurement": "RBC (5.0-10.0)", "setting": "[1]; Day 70", "result": "8.83 10^6/μL"},
      {"measurement": "RDW (16-20)", "setting": "[1]; Day 70", "result": 23.6, "unit": "%"},
      {"measurement": "WBC (4.0-12.0)", "setting": "[1]; Day 70", "result": "9.38 10^3/μL"},
      {"measurement": "All hematological indicators except for monocytes, compared with the control", "setting": "[2]", "result": "No statistically significant difference"},
      {"measurement": "Hematological indicator values relative to normal ranges", "setting": "[2]", "result": "within normal ranges"},
      {"measurement": "GRA", "setting": "[2]; 0 wks", "result": 3.01},
      {"measurement": "HCT", "setting": "[2]; 0 wks", "result": 35.00},
      {"measurement": "HGB", "setting": "[2]; 0 wks", "result": 13.60},
      {"measurement": "LYM", "setting": "[2]; 0 wks", "result": 5.55},
      {"measurement": "MCH", "setting": "[2]; 0 wks", "result": 12.83},
      {"measurement": "MON", "setting": "[2]; 0 wks", "result": 0.10},
      {"measurement": "PLT", "setting": "[2]; 0 wks", "result": 378.0},
      {"measurement": "RBC", "setting": "[2]; 0 wks", "result": 10.70},
      {"measurement": "WBC", "setting": "[2]; 0 wks", "result": 8.66},
      {"measurement": "GRA", "setting": "[2]; 4 wks", "result": 2.09},
      {"measurement": "HCT", "setting": "[2]; 4 wks", "result": 34.64},
      {"measurement": "HGB", "setting": "[2]; 4 wks", "result": 14.20},
      {"measurement": "LYM", "setting": "[2]; 4 wks", "result": 6.55},
      {"measurement": "MCH", "setting": "[2]; 4 wks", "result": 13.80},
      {"measurement": "MON", "setting": "[2]; 4 wks", "result": 0.06},
      {"measurement": "PLT", "setting": "[2]; 4 wks", "result": 476.8},
      {"measurement": "RBC", "setting": "[2]; 4 wks", "result": 10.34},
      {"measurement": "WBC", "setting": "[2]; 4 wks", "result": 8.70},
      {"measurement": "GRA", "setting": "[2]; 7 wks", "result": 3.29},
      {"measurement": "HCT", "setting": "[2]; 7 wks", "result": 33.88},
      {"measurement": "HGB", "setting": "[2]; 7 wks", "result": 13.68},
      {"measurement": "LYM", "setting": "[2]; 7 wks", "result": 5.98},
      {"measurement": "MCH", "setting": "[2]; 7 wks", "result": 13.70},
      {"measurement": "MON", "setting": "[2]; 7 wks", "result": 0.08},
      {"measurement": "PLT", "setting": "[2]; 7 wks", "result": 379.5},
      {"measurement": "RBC", "setting": "[2]; 7 wks", "result": 10.08},
      {"measurement": "WBC", "setting": "[2]; 7 wks", "result": 9.34}
    ]}
  ]
}
